Experimental data taken from US8207136B2, “Nucleoside compounds and methods of use thereof” (The Board of Trustees of the University of Illinois, priority 2005, dated 2012).

Tests used:
[1] = tested on: RNA polymerase II transcription; assay: Nuclear run-on assay, nuclei from treated HCT-116 cells; assay type: cell-based, human; details: HCT-116 cells treated 2 hours with 1 mM
Protocol: Run-on assays with isolated nuclei were performed as described. Briefly, cells treated with the indicated agents were lysed with hypotonic buffer (10 mM Tris-HCl pH 7.4, 10 mM NaCl and 35 mM MgCl2) and nuclei collected by centrifugation and resuspended in nuclear storage buffer (50 mM HEPES pH 8.0, 5 mM MgCl2, 0.5 mM DTT, 1 mg/ml BSA and 25% (v/v) glycerol) at about 5×10^8 nuclei/ml and stored at −80° C. Transcription reactions were performed in 200 μl volume consisting of 1×10^7 nuclei in the presence of 0.12 M KCl, 7 mM Mg(Ac)2, 25 μCi of [^32P]GTP, 500 μM ATP, UTP and CTP at 30° C. Samples were collected at various time points (18 μl/time point—0, 5, 10, 20 and 30 min) and the reaction terminated by the addition of 57 μl of Sarkosyl solution (1% Sarkosyl, 0.1 M Tris pH 8.0, 0.1 M NaCl, 10 mM EDTA and 200 μg/ml tRNA). The stopped reactions were transferred to Whatman DE81 paper, and washed four times with wash buffer (5% K2HPO4 and 0.3% Na4P2O7) for 10 min, followed by a 5-min water wash. Then the paper was briefly rinsed with 95% ethanol and allowed to dry completely. Radiation was quantitated using a liquid scintillation counter.
Some transcriptional inhibitors such as DRB and flavopiridol repress p21 and hdm2 while increasing p53 levels. […] To evaluate this activity, HCT-116 cells were treated with one of DMSO (control), ARC or DRB, and nuclei were isolated. These nuclei were assayed for rate of transcription either in the presence or absence of α-amanitin using the nuclear run-on assay. […] If ARC inhibits polymerase I and III transcription, the rate of transcription should be substantially lower in the ARC+α-amanitin (FIG. 2A; curve 5) when compared with DMSO+α-amanitin (FIG. 2A; curve 4). However both of these rates of transcription were similar, implying that ARC might preferentially affect only RNA polymerase II transcription.

[2] = tested on: wild type MRC-5 human fetal lung fibroblasts; assay: Apoptosis and cell cycle assays in wild type MRC-5 fibroblasts; assay type: cell-based; details: for cell cycle profile: 20 μM
Protocol: (§1) Immunoblotting was performed as described with antibodies specific for p53 (sc-126 HRP; Santa Cruz), hdm2 (sc-965; Santa Cruz), p21 (556431; BD Pharmingen), Sp1 (sc-59; Santa Cruz), survivin (sc-10811; Santa Cruz), phospho RNA polymerase II (4735; Cell Signaling), total RNA polymerase II (8WG16; a gift from Dr. Schlegel, University of Illinois at Chicago), α-tubulin (T9026; Sigma), cleaved caspase-3 (9664; Cell Signaling), caspase-9 (9502; Cell Signaling) and β-actin (A5441; Sigma) antibodies.
Apoptosis was detected either by DAPI (4′,6-diamidino-2-phenylindole) staining or by Flow Cytometry after PI (Propidium Iodide) staining. For DAPI staining, all treatments (DMSO or ARC) were done in triplicates in 6-well plates and cells were stained with DAPI and visualized by fluorescent microscopy. Four random fields for each sample were photographed and at least 500 cells per field were counted to estimate apoptosis. The data is represented as mean±Standard deviation (sd).
For Flow Cytometry, cells were fixed in 70% ethanol and stored at −20° C. until further analysis. Equal numbers of fixed cells were then stained with PI solution (0.1% Triton X-100, 0.2 mg/ml DNase free RNase, 0.02 mg/ml propidium iodide) made in PBS for 15 min at 37° C. and analyzed by a flow cytometer.
The ability of ARC to induce apoptosis in wild type and SV40-transformed MRC-5 human fetal lung fibroblasts was evaluated. Twenty-four hours after treatment with ARC, transformed fibroblasts underwent robust apoptosis (around 50% and 70%, respectively, with 5 and 10 μM of ARC) (FIGS. 4A and B). […] The transformed cell types may be more dependent on the survivin levels for their survival than their wild type counterparts and thus the reduction in these levels could be lethal to these cells.
Moreover, the effect of 20 μM ARC treatment on wild type fibroblasts was analyzed and little change was found in the cell cycle profile after 24 hours (data not shown) and the cells undergo G2-arrest after 48 hours (FIG. 4D).

[3] = tested on: p53, p21, hdm2, survivin; assay: Immunoblot of p53, p21, hdm2 and survivin levels in cancer cell lines; assay type: cell-based, human
Protocol: as §1
(§2) In order to find small molecule transcriptional inhibitors of p21, we generated LIM1215 colon cancer cells, carrying lacZ under the control of p21 promoter, as a screening system for testing ˜2000 structurally diverse compounds (Diversity Set) obtained from National Cancer Institute (NCI). […] To determine if these effects mediated by ARC were dose-dependent, we treated HCT-116 colon carcinoma cells with different concentrations of ARC.
In order to evaluate the extent to which the ARC-mediated repression of p21, hdm2 and survivin are p53-dependent, a pair of isogenic colon cancer cell lines was employed differing only in their p53 status—HCT-116 wild-type and HCT-116-p53^−/− cells (gift from Dr. Bert Vogelstein).

[4] = tested on: HUVECs; assay: Proliferation inhibition assay; assay type: cell-based; details: Homo sapiens, HUVEC; 10 ng/ml VEGF, 24, 48 or 72 hours, average from two trials; read-out: IC50, HUVEC growth
Protocol: Different angiogenesis assays such as cord formation assay, motility assay and proliferation inhibition assay were performed at the developmental therapeutics program (DTP) branch of NCI (NCI/DTP) as described. HUVECs were used for all the assays. Taxol and TNP-470 were used as positive control for the assays.
For proliferation inhibition assay, HUVECs were grown in the absence of growth factors for 24 hours and then stimulated with 10 ng/ml VEGF and were treated with either DMSO or different concentrations of ARC for 24 hours, 48 hours or 72 hours.

[5] = tested on: p21 promoter; assay: p21 promoter-lacZ reporter screen in LIM1215 colon carcinoma cells; assay type: cell-based, human; details: 10 μM, 24 hours
Protocol: LIM1215 colon carcinoma cells harboring the lacZ reporter gene under the control of a 2.3 kb p21 promoter (containing two p53 binding sites) were grown in 96-well plates. Diversity set, a chemical compound library containing approximately 2000 compounds (dissolved in DMSO), was obtained from the National Cancer Institute (NCI) and was used at a final concentration of 10 μM on the cells for 24 hours. lacZ encoded β-Gal was detected by X-Gal staining as described previously.
as §2

[6] = cancer cell lines of different origin, 10 μM, 24 hours

Structure (SMILES): NNc1c(C(N)=O)c2c(N)ncnc2n1[C@@H]1O[C@H](CO)[C@@H](O)[C@H]1O [ARC, 4-amino-6-hydrazino-7-beta-D-ribofuranosyl-7H-pyrrolo[2,3-d]-pyrimidine-5-carboxamide]
- rate of transcription versus control nuclei [1]: lower
- rate of transcription in the presence of α-amanitin versus DMSO+α-amanitin ([1]; 2 μg/ml α-amanitin): similar
- cell cycle profile ([2]; 24 hours): little change
- cell cycle profile ([2]; 48 hours): G2-arrest
- cell killing ([2]; 10 or 20 μM, 24 hours): not susceptible to ARC-mediated cell killing
- p21, hdm2 and survivin levels, p53 dependence ([3]; HCT-116-p53+/+ versus HCT-116-p53−/− cells): repressed irrespective of their p53 status
- p53, p21 and hdm2 levels, dose dependence ([3]; HCT-116 colon carcinoma cells, increasing amounts, 24 hours): increased p53 but simultaneously repressed its target genes p21 and hdm2 in a dose-dependent manner
- p53 levels in nuclear extracts ([3]; MCF-7 cells, ARC alone): highly induced
- hdm2 levels [3, 6]: downregulate hdm2
- p21 levels [3, 6]: repress p21 levels
- p53 levels [3, 6]: increased p53 levels
- survivin levels [3, 6]: downregulate
- IC50 [4]: ~47 nM
- p21 promoter driven β-Gal expression [5]: inhibit p21 promoter
